{"source": "patent US20250026765A1", "about": "“SPIROHETEROCYCLE DERIVATIVE HAVING SEROTONIN RECEPTOR BINDING ACTIVITY” (Shionogi & Co., Ltd., priority 2021, published 2025)", "data": [{"molecular_target": "CYP3A4 (Homo sapiens (Human), UniProt P08684)", "sequence (P08684 whole entry)": "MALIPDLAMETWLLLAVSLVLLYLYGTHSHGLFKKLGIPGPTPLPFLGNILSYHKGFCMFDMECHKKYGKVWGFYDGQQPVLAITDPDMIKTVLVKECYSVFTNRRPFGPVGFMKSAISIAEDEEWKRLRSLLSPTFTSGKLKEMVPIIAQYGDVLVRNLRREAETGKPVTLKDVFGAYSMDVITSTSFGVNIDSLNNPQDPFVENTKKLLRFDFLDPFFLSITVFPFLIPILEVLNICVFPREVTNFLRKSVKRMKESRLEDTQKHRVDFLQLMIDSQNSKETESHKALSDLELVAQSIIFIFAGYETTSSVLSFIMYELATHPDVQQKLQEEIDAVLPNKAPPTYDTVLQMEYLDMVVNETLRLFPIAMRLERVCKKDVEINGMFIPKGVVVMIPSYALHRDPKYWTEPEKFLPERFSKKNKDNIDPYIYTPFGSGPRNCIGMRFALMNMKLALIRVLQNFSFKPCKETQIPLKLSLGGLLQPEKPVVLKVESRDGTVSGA", "test": "CYP3A4 (MDZ) MBI test", "assay_type": "in vitro ADME", "conditions": "pooled human liver microsomes, midazolam 1-hydroxylation, pre-reaction 0 or 30 minutes", "method": "Test Example 8: CYP3A4 (MDZ) MBI Test\nThis test is a test to evaluate mechanism based inhibition (MBI) potency from enhancement of CYP3A4 inhibition of the compound of the present invention by a metabolism reaction. CYP3A4 inhibition is evaluated using pooled human liver microsomes by 1-hydroxylation reaction of midazolam (MDZ) as a marker reaction.\nThe reaction conditions are as follows: substrate, 10 μmol/L MDZ; pre-reaction time, 0 or 30 minutes; reaction time, 2 minutes; reaction temperature, 37° C.; pooled human liver microsomes, at pre-reaction 0.5 mg/mL, at reaction 0.05 mg/mL (at 10-fold dilution); concentrations of the compound of the present invention, 0.83, 5, 10, 20 μmol/L (four points).\nPooled human liver microsomes and a solution of the compound of the present invention in K-Pi buffer (pH 7.4) as a pre-reaction solution are added to a 96-well plate at the composition of the pre-reaction. A part of pre-reaction solution is transferred to another 96-well plate, and 1/10 diluted by K-Pi buffer containing a substrate. NADPH as a co-factor is added to initiate a reaction as a marker reaction (without preincubation). After a predetermined time of a reaction, methanol/acetonitrile=1/1 (V/V) solution is added to stop the reaction. In addition, NADPH is added to a remaining pre-reaction solution to initiate a pre-reaction (with preincubation). After a predetermined time of a pre-reaction, a part is transferred to another plate, and 1/10 diluted by K-Pi buffer containing a substrate to initiate a reaction as a marker reaction. After a predetermined time of a reaction, methanol/acetonitrile=1/1 (V/V) solution is added to stop the reaction. Each plate where the marker reaction has been performed is centrifuged at 3000 rpm for 15 minutes. Then, midazolam 1-hydroxide in the centrifuged supernatant is quantified by LC/MS/MS.\nOnly DMSO which is a solvent dissolving the compound of the present invention added to a reaction system is adopted as a control (100%). Remaining activity (%) is calculated at each concentration of the compound of the present invention added. IC is calculated by reverse-presumption by a logistic model using a concentration and an inhibition rate. Shifted IC value is calculated as “IC of preincubation at 0 min/IC of preincubation at 30 min”. When a shifted IC is 1.5 or more, this is defined as positive. When a shifted IC is 1.0 or less, this is defined as negative.", "values": [{"smiles": "CC(C)COc1ccc(CN(Cc2coc(CF)n2)C2=NOC3(CCN(C)CC3)N2)cc1", "note": "[Compound I-067]", "CYP3A4 (MDZ) MBI (shifted IC)": "Negative (When a shifted IC is 1.0 or less, this is defined as negative)"}, {"smiles": "CCCCOc1ccc(CN(Cc2coc(C)n2)C2=NOC3(CCN(C)CC3)N2)cc1", "note": "[Compound I-080]", "CYP3A4 (MDZ) MBI (shifted IC)": "Negative (When a shifted IC is 1.0 or less, this is defined as negative)"}, {"smiles": "Cc1nc(CN(Cc2ccc(OCC(F)(F)C(F)(F)F)cc2F)C2=NOC3(CCN(C)CC3)N2)co1", "note": "[Compound I-104]", "CYP3A4 (MDZ) MBI (shifted IC)": "Negative (When a shifted IC is 1.0 or less, this is defined as negative)"}, {"smiles": "CCCCOc1ccc(CN(Cc2coc(CF)n2)C2=NOC3(CCN(C)CC3)N2)cc1", "note": "[Compound I-105]", "CYP3A4 (MDZ) MBI (shifted IC)": "Negative (When a shifted IC is 1.0 or less, this is defined as negative)"}, {"smiles": "CCCCOc1ccc(CN(Cc2cnn(C)n2)C2=NOC3(CCN(C)CC3)N2)cc1", "note": "[Compound I-113]", "CYP3A4 (MDZ) MBI (shifted IC)": "Negative (When a shifted IC is 1.0 or less, this is defined as negative)"}, {"smiles": "CCCCOc1ccc(CN(Cc2coc(C)n2)C2=NOC3(CCN(C)CC3)N2)c(F)c1", "note": "[Compound I-114]", "CYP3A4 (MDZ) MBI (shifted IC)": "Negative (When a shifted IC is 1.0 or less, this is defined as negative)"}, {"smiles": "CCCCOc1ccc(CN(Cc2coc(C)n2)C2=NOC3(CCN(C)CC3)N2)cc1F", "note": "[Compound I-115]", "CYP3A4 (MDZ) MBI (shifted IC)": "Negative (When a shifted IC is 1.0 or less, this is defined as negative)"}, {"smiles": "Cc1nc(CN(Cc2ccc(CCC(F)(F)F)cc2)C2=NOC3(CCN(C)CC3)N2)co1", "note": "[Compound I-125]", "CYP3A4 (MDZ) MBI (shifted IC)": "Negative (When a shifted IC is 1.0 or less, this is defined as negative)"}, {"smiles": "Cc1nc(CN(Cc2ccc(OCC(C)C)cc2F)C2=NOC3(CCN(C)CC3)N2)co1", "note": "[Compound I-128]", "CYP3A4 (MDZ) MBI (shifted IC)": "Negative (When a shifted IC is 1.0 or less, this is defined as negative)"}]}]}
